Measurements taken from patent US4093648A, “Therapeutically active benzoic acid derivatives and a process for preparing them” (Recordati S.A. Chemical and Pharmaceutical Company, priority 1975, dated 1978).

Columns and labels:
[1] = system: cutaneous passive anaphylaxis; settings: qualitative statement, no data; cited from earlier work
[2] = system: cutaneous passive anaphylaxis; assay: cutaneous passive anaphylaxis on the rat (antianaphylactic activity vs. sodium chromoglycate standard); assay type: in vivo; settings: for Compound activity / Standard activity: ratio to chromoglycate (standard), cutaneous passive anaphylaxis, rat
Text: The compounds of formula I and their pharmacologically compatible salts show antianaphylactic activity (which is rather remarkable for some of them) that may be successfully employed to prepare pharmaceutical formulations for human use against the allergic asthma and alimentary allergies. In order to evaluate the antianaphylactic activity, we have performed some comparison tests with sodium chromoglycate that is, at the present time, the most known and the most used antiallergic agent.
(§1) The evaluation of biological data has been carried out by the most accepted test of the cutaneous passive anaphylaxis on the rat. We have followed the method described by J. Mota on Life Science 12,917 (1963) that was appropriately modified. The LD50 determination was carried out with the common method, by administering intraperitoneally the compound to rats. The chromoglycate was used as a standard. In the first column, are listed the LD50 values (mg/Kg), in the second the ratios [formula] in the last column the ratios [formula]

[3] = LD50 determination, intraperitoneal, rats; settings: rat, in vivo, ip
Protocol: as §1

For O=C(O)c1cc(=O)c2c(OCC(O)COc3cccc4oc(C(=O)O)cc(=O)c34)cccc2o1 [chromoglycate, sodium chromoglycate], the “activity when administered per os (chromoglycate)” value [1] is given as “inactive”.

For CCC(=O)c1cccc(C(=O)Nc2ccccc2Cl)c1O [Example 3, 2-Hydroxy-3-propionyl (o-chlorophenyl) benzamide], the “Compound activity / Standard activity” value [2] was 1.19 and the LD50 ([3]; intraperitoneally to rats) was 3000 mg/kg.

In the case of CCOc1ccc(NC(=O)c2cccc(C(=O)CC)c2O)cc1 [Example 2, 2-Hydroxy-3-propionyl (4-ethoxyphenyl)benzamide], the “Compound activity / Standard activity” value [2] was 1.20 and the LD50 ([3]; intraperitoneally to rats) was 3000 mg/kg.

With CCC(=O)c1cccc(C(=O)Nc2cccc(Cl)c2)c1O [Example 4, 2-Hydroxy-3-propionyl (m-chlorophenyl) benzamide] the “Compound activity / Standard activity” value [2] was 1.12 and the LD50 ([3]; intraperitoneally to rats) was 2700 mg/kg.

In the case of CCC(=O)c1cccc(C(=O)O)c1OCCN(CC)CC [Example 7, 2(β-diethylamino)ethoxy-3-propionylbenzoic Acid], the antianaphylactic activity ([2]; qualitative statement) was “most active product of this series”, the “Compound activity / Standard activity” value [2] was 1.22 and the LD50 [3] was 3000 mg/kg.
